Results on 3 compounds are retold here after article PMC5515859, “Metabolism of F18, a Derivative of Calanolide A, in Human Liver Microsomes and Cytosol” (Frontiers in Pharmacology, 2017).

Data set [1] concerns human liver microsomes. Kind of data set: Incubation of F18 with human liver microsomes, metabolite profiling by LC-MS/MS. It is filed as in vitro ADME. More on the design: key: +: Metabolite detected; −: metabolite not detected. To be noted: F18 50 μM, 1 h. Here is the method: (§1) A stock solution of F18 (5 mM) was prepared in methanol. F18 (50 μM) was incubated with RLMs/DLMs/MLMs/HLMs and HLcy (0.5 mg protein/mL) in 50 mM Tris-HCl buffer containing 5 mM MgCl2 (pH 7.4) in a final volume of 200 μL. The final concentration of methanol in the incubation system was 1% (v/v). After 3 min of preincubation at 37°C, the reactions were initiated by the addition of NADPH-regenerating system (10-mM β-NADP, 100-mM 6-G-P and 10-U/mL 6-G-P-DH) or NADH. After incubation for 1 h, the reactions were terminated by the addition of two volumes of ice-cold acetonitrile. Samples without NADPH or NADH were included as controls. The incubation mixture was vortexed and centrifuged at 13,300 × g for 5 min. A 10 μL aliquot of the supernatant was injected into an LC-tandem mass spectrometer (LC-MS/MS) for analysis.
(§2) Metabolic profiling studies were performed with a Finnigan TSQ Quantum MS instrument with an electrospray ionization probe and a Finnigan SURVEYOR HPLC system (Thermo Finnigan, San Jose, CA, USA). HPLC was performed with a Zorbax SB-C18 column (2.1 × 100 mm, 3.5 μm, Agilent Corporation, CA, USA) with a column temperature of 35°C and a flow rate of 200 μL/min. F18 and its metabolites were eluted using a linear gradient method with a mobile phase consisting of solvent A (water with 0.1% formic acid) and solvent B (acetonitrile with 0.1% formic acid). […] The samples were analyzed in the positive-ionization mode, and the TSQ capillary temperature was set to 350°C. Nitrogen was used as both the sheath gas and the auxiliary gas and was delivered at 30 psi and 15 psi, respectively. The spray voltage and tube lens were set to 3,800 V and 123 V, respectively. The full-width half maximum (FWHM) was set to 0.7. MS data were acquired in the selective ion-recording mode or by collecting full scans from 200 to 600 m/z at 1 scan/s. The mass spectrometer and HPLC system were operated using Xcalibur 2.0.7 software.
(Liver microsomes are vesicles of endoplasmic reticulum, rich in cytochrome P450 enzymes.)

Data set [2] has as its target T1, recombinant FMO3 (Homo sapiens, UniProt P31513).
T1 construct: purchased BD Gentest (Woburn, MA, USA)
T1 sequence (P31513 1-532): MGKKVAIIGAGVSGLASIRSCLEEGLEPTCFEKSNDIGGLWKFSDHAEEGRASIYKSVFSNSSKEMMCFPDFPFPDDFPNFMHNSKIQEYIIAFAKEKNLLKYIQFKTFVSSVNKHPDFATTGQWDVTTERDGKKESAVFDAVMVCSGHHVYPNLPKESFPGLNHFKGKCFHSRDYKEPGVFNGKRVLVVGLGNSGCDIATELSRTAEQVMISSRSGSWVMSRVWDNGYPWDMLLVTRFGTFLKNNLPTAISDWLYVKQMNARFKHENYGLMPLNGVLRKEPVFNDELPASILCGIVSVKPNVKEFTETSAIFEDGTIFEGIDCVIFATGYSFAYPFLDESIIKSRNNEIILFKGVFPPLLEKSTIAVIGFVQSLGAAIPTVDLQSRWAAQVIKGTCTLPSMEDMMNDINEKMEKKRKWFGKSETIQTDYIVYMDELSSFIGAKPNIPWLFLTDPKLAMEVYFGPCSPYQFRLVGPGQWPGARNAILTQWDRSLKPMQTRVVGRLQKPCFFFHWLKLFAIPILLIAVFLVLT
Kind of data set: Metabolism of F18 by cDNA-expressed FMO3. It is filed as in vitro ADME. Particulars: F18 10 μM, 50 pmol/mL enzyme, 1 h. Here is the method:
(§3) To further verify the roles of CYPs and FMOs in the metabolism of F18 in humans, F18 (10 μM) was incubated individually with 14 cDNA-expressed human CYP isozymes (50-pmol/mL CYP1A1, CYP1A2, CYP2A6, CYP2B6, CYP2C8, CYP2C9, CYP2C19, CYP2D6, CYP2E1, CYP2J2, CYP3A4, CYP4F2, CYP4F3, and CYP4A11) and three cDNA-expressed FMO enzymes (50-pmol/mL FMO1, FMO3, and FMO5). The incubation conditions were similar to those used for HLMs (described above), with the exception of the incubating time […]. Samples incubated without NADPH were used as the negative control.

In data set [3] the test system is dog liver microsomes. In words: Incubation of F18 with dog liver microsomes, metabolite profiling. It counts as in vitro ADME, beagle dog. More on the design: key: +: Metabolite detected; −: metabolite not detected. To be noted: F18 50 μM, 1 h. Here is the method: as §1, §2
Data set [4] deals with T2, recombinant FMO1 (Homo sapiens, UniProt Q01740).
T2 construct: purchased BD Gentest (Woburn, MA, USA)
T2 sequence (Q01740 1-532): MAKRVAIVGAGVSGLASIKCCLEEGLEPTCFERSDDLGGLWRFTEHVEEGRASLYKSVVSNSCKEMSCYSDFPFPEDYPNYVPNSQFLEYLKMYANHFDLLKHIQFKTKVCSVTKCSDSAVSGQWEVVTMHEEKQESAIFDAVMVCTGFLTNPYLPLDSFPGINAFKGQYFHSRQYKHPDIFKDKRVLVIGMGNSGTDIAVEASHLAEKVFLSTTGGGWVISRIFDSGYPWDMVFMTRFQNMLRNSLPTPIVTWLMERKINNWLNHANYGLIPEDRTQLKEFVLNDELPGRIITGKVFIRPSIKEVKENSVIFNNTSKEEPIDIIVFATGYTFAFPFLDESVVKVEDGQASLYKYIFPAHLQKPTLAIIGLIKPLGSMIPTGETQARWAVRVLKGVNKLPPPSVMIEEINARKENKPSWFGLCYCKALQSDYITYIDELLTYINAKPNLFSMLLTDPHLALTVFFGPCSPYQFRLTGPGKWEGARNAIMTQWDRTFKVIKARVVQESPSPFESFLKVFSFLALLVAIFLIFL
In words: Metabolism of F18 by cDNA-expressed FMO1. It is filed as in vitro ADME. Particulars: F18 10 μM, 50 pmol/mL enzyme, 1 h. Here is the method: as §3

Turning to `CCCc1cc(=O)oc2c3c(c4c(c12)OC(C)(C)C=C4)O[C@H](CCl)C[C@H]3O` (relative stereo) [Metabolite M3-1, trans-12-hydroxy F18], in data set [1], the “F18 metabolite detected in HLM” value is given as “+”. In addition, the “Metabolite detected in incubation with recombinant FMO3” value in data set [2] is “detected”. Moreover, in data set [3], the “F18 metabolite detected in DLM” value is given as “+”. Also, in data set [4], the “Metabolite detected in incubation with recombinant FMO1” value is recorded as “detected”.

Regarding `CCCc1cc(=O)oc2c3c(c4c(c12)OC(C)(C)C=C4)O[C@H](CCl)C[C@@H]3O` (relative stereo) [Metabolite M3-2, cis-12-hydroxy F18], in data set [1], the “F18 metabolite detected in HLM” value is recorded as “+”. In data set [2], the “Metabolite detected in incubation with recombinant FMO3” value is reported as “detected”. Also, the “F18 metabolite detected in DLM” value in data set [3] is “+”. For the same compound, the “Metabolite detected in incubation with recombinant FMO1” value in data set [4] is given as “detected”.

In the case of `CCCc1cc(=O)oc2c3c(c4c(c12)OC(C)(C)C=C4)OC(CO)CC3=O` (stereo not drawn) [Metabolite M1], the “F18 metabolite detected in HLM” value in data set [1] is “+”. Further, in data set [2], the “Metabolite detected in incubation with recombinant FMO3” value is recorded as “not detected”. Further, the “F18 metabolite detected in DLM” value in data set [3] is “+”. The “Metabolite detected in incubation with recombinant FMO1” value in data set [4] was “not detected”.
